Reference: patent publication US20250066371A1, “FLUOROALKOXYALKYLENE-DIHYDROIMIDAZO[5,1-D]TETRAZINONE COMPOUNDS AND RELATED COMPOUNDS AND THEIR USE IN TREATING MEDICAL CONDITIONS” (priority 2023, published 2025)

Key:
Assay in all cases: Cell panel nuclear dye assay
Format in all cases: cell-based
[1] = system: 5637; details: 120 h, Bladder, 5-day incubation
Experimental: (§1) Cells were grown in RPMI1640, 10% FBS, 2 mM L-alanyl-L-glutamine, 1 mM Na pyruvate, or a special medium. Cells were seeded into 384-well plates and incubated in a humidified atmosphere of 5% CO2 at 37° C. Compound was added the day following cell seeding. At the same time, a time zero untreated cell plate was generated. After a 5-day incubation period, cells were fixed and stained to allow fluorescence imaging of nuclei.
(§2) Compounds were serially diluted in 2-fold steps from the highest test concentration specified, and assayed over 10 concentrations with a maximum assay concentration of 0.1% DMSO. Automated fluorescence microscopy was carried out using a Molecular Devices ImageXpress Micro XL high-content imager, and images were collected with a 4× objective. 16-bit TIFF images were acquired and analyzed with MetaXpress 5.1.0.41 software.
(§3) Cell proliferation was measured by the fluorescence intensity of an incorporated nuclear dye. The output is referred to as the relative cell count, where the measured nuclear intensity is transformed to percent of control (POC) using the following formula: […]
(§4) Cell count IC50 is the test compound concentration at 50% of maximal possible response. EC50 is the test compound concentration at the curve inflection point or half the effective response (parameter C of the fitted curve solution). GI50 is the concentration needed to reduce the observed growth by half (midway between the curve maximum and the time zero value). Activity area is an estimate of the integrated area above the curve. Activity area values range from 0-10, where a value of zero indicates no inhibition of proliferation at all concentrations, and a value of 10 indicates complete inhibition of proliferation at all concentrations. In rare instances, values <0 or >10 may be observed. In these instances, values <0 should be considered as equivalent to 0, whereas values >10 should be considered equivalent to 10.

[2] = system: A172; details: Homo sapiens, A 172, 120 h, Glioma (glioblastoma), 5-day incubation
Experimental: as §1, §2, §3, §4

[3] = system: A427; details: Homo sapiens, A-427, 120 h, Lung (NSCLC), 5-day incubation
Experimental: as §1, §2, §3, §4

[4] = system: BFTC-905; details: Homo sapiens, 120 h, Bladder, 5-day incubation
Experimental: as §1, §2, §3, §4

[5] = system: CHP-212; details: Homo sapiens, 120 h, Neuroblastoma, 5-day incubation
Experimental: as §1, §2, §3, §4

[6] = system: Colo 320DM; details: Homo sapiens, 120 h, Colon, 5-day incubation
Experimental: as §1, §2, §3, §4

[7] = system: DB; details: Homo sapiens, 120 h, Lymphoma (B-cell), 5-day incubation
Experimental: as §1, §2, §3, §4

[8] = system: DK-MG; details: 120 h, Glioma, 5-day incubation
Experimental: as §1, §2, §3, §4

[9] = system: DMS53; details: Homo sapiens, DMS-53, 120 h, Lung (SCLC), 5-day incubation
Experimental: as §1, §2, §3, §4

[10] = system: HOS; details: Homo sapiens, 120 h, Osteosarcoma, 5-day incubation
Experimental: as §1, §2, §3, §4

[11] = system: Hs 294T; details: Homo sapiens, 120 h, Melanoma, 5-day incubation
Experimental: as §1, §2, §3, §4

[12] = system: Jiyoye; details: Homo sapiens, 120 h, Lymphoma (Burkitt's), 5-day incubation
Experimental: as §1, §2, §3, §4

[13] = system: KHOS-240S; details: 120 h, Osteosarcoma, 5-day incubation
Experimental: as §1, §2, §3, §4

[14] = system: M059J; details: Homo sapiens, 120 h, Glioma (glioblastoma), 5-day incubation
Experimental: as §1, §2, §3, §4

[15] = system: MT-3; details: 120 h, Colon, 5-day incubation
Experimental: as §1, §2, §3, §4

[16] = system: MeWo; details: Homo sapiens, 120 h, Melanoma, 5-day incubation
Experimental: as §1, §2, §3, §4

[17] = system: NCI-H69; details: Homo sapiens, 120 h, Lung (SCLC), 5-day incubation
Experimental: as §1, §2, §3, §4

[18] = system: NCI-H747; details: Homo sapiens, 120 h, Colon (cecum), 5-day incubation
Experimental: as §1, §2, §3, §4

[19] = system: SJRH30; details: Homo sapiens, 120 h, Sarcoma (rhabdomyosarcoma), 5-day incubation
Experimental: as §1, §2, §3, §4

[20] = system: SK-N-AS; details: Homo sapiens, 120 h, Neuroblastoma, 5-day incubation
Experimental: as §1, §2, §3, §4

[21] = system: ST486; details: Homo sapiens, 120 h, Lymphoma (Burkitt's), 5-day incubation
Experimental: as §1, §2, §3, §4

[22] = system: SU-DHL-8; details: Homo sapiens, 120 h, Lymphoma (large cell), 5-day incubation
Experimental: as §1, §2, §3, §4

[23] = system: SW48; details: Homo sapiens, 120 h, Colon, 5-day incubation
Experimental: as §1, §2, §3, §4

[24] = system: SW620; details: Homo sapiens, SW-620, 120 h, Colon, 5-day incubation
Experimental: as §1, §2, §3, §4

[25] = system: SaOS2; details: Homo sapiens, SAOS-2, 120 h, Osteosarcoma, 5-day incubation
Experimental: as §1, §2, §3, §4

[26] = system: VA-ES-BJ; details: 120 h, Sarcoma (epitheloid), 5-day incubation
Experimental: as §1, §2, §3, §4

NC(=O)c1ncn2c(=O)n(CCOC(F)(F)F)nnc12 [Compound I-1, 4-Oxo-3-(2-(trifluoromethoxy)ethyl)-3,4-dihydroimidazo[5,1-d][1,2,3,5]tetrazine-8-carboxamide]
EC50 [1]: 30 to 70 µM | IC50 [1]: 30 to 70 µM | EC50 [2]: 30 to 70 µM | IC50 [2]: 70 to 150 µM | EC50 [3]: 30 to 70 µM | IC50 [3]: 30 to 70 µM | EC50 [4]: 30 to 70 µM | IC50 [4]: 30 to 70 µM | EC50 [5]: ≤ 30 µM | IC50 [5]: ≤ 30 µM | EC50 [6]: 30 to 70 µM | IC50 [6]: 30 to 70 µM | EC50 [7]: ≤ 30 µM | IC50 [7]: 30 to 70 µM | EC50 [8]: ≤ 30 µM | IC50 [8]: 30 to 70 µM | EC50 [9]: ≤ 30 µM | IC50 [9]: ≤ 30 µM | EC50 [10]: 30 to 70 µM | IC50 [10]: 30 to 70 µM | EC50 [11]: ≤ 30 µM | IC50 [11]: ≤ 30 µM | EC50 [12]: 30 to 70 µM | IC50 [12]: 30 to 70 µM | EC50 [13]: > 150 µM | IC50 [13]: > 150 µM | EC50 [14]: 30 to 70 µM | IC50 [14]: 30 to 70 µM | EC50 [15]: ≤ 30 µM | IC50 [15]: ≤ 30 µM | EC50 [16]: > 150 µM | IC50 [16]: > 150 µM | EC50 [17]: ≤ 30 µM | IC50 [17]: ≤ 30 µM | EC50 [18]: > 150 µM | IC50 [18]: > 150 µM | EC50 [19]: ≤ 30 µM | IC50 [19]: ≤ 30 µM | EC50 [20]: > 150 µM | IC50 [20]: > 150 µM | EC50 [21]: ≤ 30 µM | IC50 [21]: ≤ 30 µM | EC50 [22]: ≤ 30 µM | IC50 [22]: ≤ 30 µM | EC50 [23]: ≤ 30 µM | IC50 [23]: ≤ 30 µM | EC50 [24]: 70 to 150 µM | IC50 [24]: 70 to 150 µM | EC50 [25]: ≤ 30 µM | IC50 [25]: ≤ 30 µM | EC50 [26]: 70 to 150 µM | IC50 [26]: > 150 µM
